Source: US9375006B2, “5- halogenopyrazole benzofuranyl carboxamides” (BAYER CROPSCIENCE AG, priority 2012, dated 2016)

Assays:
Puccinia recondita = experiment: In vivo preventive test on Puccinia recondita (brown rust on wheat); conditions: wheat plants, preventive spray, grading 12 days after contamination
Method: (§1) The active ingredients tested are prepared by homogenization in a mixture of acetone/tween/DMSO, and then diluted with water to obtain the desired active material concentration.
Wheat plants (“Scipion” variety), sown in starter cups on a 50/50 peat soil-pozzolana substrate and grown at 22° C., are treated at the 1-leaf stage (10 cm height) by spraying with the active ingredient prepared as described above. Plants, used as controls, are treated with the mixture of acetone/tween/DMSO/water not containing the active material.
(§2) After 24 hours, the plants are contaminated by spraying the leaves with an aqueous suspension of Puccinia condita spores (100 000 spores per ml). The spores are collected from an infected plant and are suspended in water containing 2.5 ml/l of Tween 80 at 10%. The contaminated wheat plants are incubated for 24 hours at 20° C. and at 100% relative humidity, and then for 10 days at 20° C. and at 70-80% relative humidity.
(§3) Grading (% of efficacy) is carried out 12 days after the contamination, in comparison with the control plants.

Uromyces appendiculatus = experiment: In vivo preventive test on Uromyces appendiculatus (bean rust); conditions: bean plants, preventive spray, grading 11 days after contamination
Method: as §1
Bean plants (“Saxa” variety), sown in starter cups on a 50/50 peat soil-pozzolana substrate and grown at 24° C., are treated at the 2-leaf stage (9 cm height) by spraying with the active ingredient prepared as described above. Plants, used as controls, are treated with the mixture of acetone/tween/DMSO/water not containing the active material.
as §2, with “of Uromyces appendiculatus” for “of Puccinia condita”, “spores (150” for “spores (100”, “from” for “from an”, “infected plants” for “infected plant”, “contaminated bean” for “contaminated wheat”
Grading (% of efficacy) is carried out 11 days after the contamination, in comparison with the control plants.

[1] = logP by HPLC on reversed phase columns (EEC directive 79/831 Annex V.A8); assay type: physicochemical; conditions: method [a]: LC-MS at pH 2.7, 0.1% formic acid in water / acetonitrile; for chromatographic logP: reversed phase HPLC columns
Method: Measurement of log P values was performed according EEC directive 79/831 Annex V.A8 by HPLC (High Performance Liquid Chromatography) on reversed phase columns with the following methods: ^[a] Measurement of LC-MS was done at pH 2.7 with 0.1% formic acid in water and with acetonitrile (contains 0.1% formic acid) as eluent with a linear gradient from 10% acetonitrile to 95% acetonitrile. ^[b] Measurement with LC-MS was done at pH 7.8 with 0.001 molar ammonium hydrogen carbonate solution in water as eluent with a linear gradient from 10% acetonitrile to 95% acetonitrile.

Sphaerotheca fuliginea = experiment: In vivo preventive test on Sphaerotheca fuliginea (powdery mildew on cucurbits); conditions: gherkin plants, preventive spray, grading 12 days after contamination
Method: (§4) The active ingredients tested are prepared by homogenization in a mixture of acetone/tween/DMSO and then diluted with water to obtain the desired active material concentration.
(§5) Gherkin plants (“Vert petit de Paris” variety), sown in starter cups on a 50/50 peat soil-pozzolana substrate and grown at 24° C., are treated at the Z11 cotyledon stage by spraying with the active ingredient prepared as described above. Plants, used as controls, are treated with the mixture of acetone/tween/DMSO/water not containing the active material.
After 24 hours, the plants are contaminated by spraying the cotyledons with an aqueous suspension of Sphaerotheca fuliginea spores (100 000 spores per ml). The spores are collected from infected plants. The contaminated gherkin plants are incubated at about 20° C. and at 70-80% relative humidity.
as §3

Pyrenophora teres = experiment: In vivo preventive test on Pyrenophora teres (net blotch on barley); conditions: barley plants, preventive spray, grading 14 days after contamination
Method: Barley plants (“Plaisant” variety), sown in starter cups on a 50/50 peat soil-pozzolana substrate and grown at 22° C., are treated at the 1-leaf stage (10 cm height) by spraying with the active ingredient prepared as described above. Plants, used as controls, are treated with the mixture of acetone/tween/DMSO/water not containing the active material. After 24 hours, the plants are contaminated by spraying the leaves with an aqueous suspension of Pyrenophora teres spores (12 000 spores per ml). The spores are collected from a 12-day-old culture. The contaminated barley plants are incubated for 48 hours at 20° C. and at 100% relative humidity, and then for 12 days at 20° C. at 70-80% relative humidity. Grading (% of efficacy) is carried out 14 days after the contamination, in comparison with the control plants.

Septoria tritici = experiment: In vivo preventive test on Septoria tritici (leaf spot on wheat); conditions: 500 ppm, wheat plants, preventive spray, grading 24 days after contamination
Method: Wheat plants (“Scipion” variety), sown in starter cups on a 50/50 peat soil-pozzolana substrate and grown at 22° C., are treated at the 1-leaf stage (10 cm height) by spraying with the active ingredient prepared as described above. Plants, used as controls, are treated with the mixture of acetone/tween/DMSO/water not containing the active material. After 24 hours, the plants are contaminated by spraying the leaves with an aqueous suspension of cryopreserved Septoria tritici spores (500 000 spores per ml). The contaminated wheat plants are incubated for 72 hours at 18° C. and at 100% relative humidity, and then for 21 days at 90% relative humidity. Grading (% of efficacy) is carried out 24 days after the contamination, in comparison with the control plants.

Botrytis cinerea = experiment: In vivo preventive test on Botrytis cinerea (grey mould), gherkin plants; conditions: preventive spray, grading 4 to 5 days after contamination
Method: as §4, §5
After 24 hours, the plants are contaminated by spraying the cotyledons with an aqueous suspension of cryopreserved Botrytis cinerea spores (50 000 spores per ml). The spores are suspended in a nutrient solution composed of 10 g/L of PDB, 50 g/L of D-Fructose, 2 g/L of NH4NO3 and 1 g/L of KH2PO4. The contaminated gherkin plants are incubated at 17° C. and at 90% relative humidity.
Grading (% of efficacy) is carried out 4 to 5 days after the contamination, in comparison with the control plants.

Alternaria brassicae = experiment: In vivo preventive test on Alternaria brassicae (leaf spot on radish); conditions: radish plants, preventive spray, grading 6 days after contamination
Method: Radish plants (“Pernod Clair” variety), sown in starter cups on a 50/50 peat soil-pozzolana substrate and grown at 17° C., are treated at the cotyledon stage by spraying with the active ingredient prepared as described above. Plants, used as controls, are treated with the mixture of acetone/tween/DMSO/water not containing the active material. After 24 hours, the plants are contaminated by spraying the cotyledons with an aqueous suspension of Alternaria brassicae spores (50 000 spores per ml). The spores are collected from a 15-day-old culture. The contaminated radish plants are incubated at 20° C. and at 100% relative humidity. Grading (% of efficacy) is carried out 6 days after the contamination, in comparison with the control plants.

SMILES	logP [1]	Eff. % (Puccinia recondita; 500 ppm) [%]	Eff. % (Uromyces appendiculatus; 500 ppm) [%]	Eff. % (Puccinia recondita; 100 ppm) [%]	Eff. % (Sphaerotheca fuliginea; 100 ppm) [%]	Eff. % (Uromyces appendiculatus; 100 ppm) [%]	Eff. % (Pyrenophora teres; 100 ppm) [%]	Eff. % (Alternaria brassicae; 100 ppm) [%]	Eff. % (Botrytis cinerea; 100 ppm) [%]	also measured
Cn1nc(C(F)F)c(C(=O)Nc2cccc3c2COC3(C)C)c1Cl [Example 4]	2.55[a]	100	100	–	–	–	–	–	–	–
CC1OC(C)(C)c2cccc(NC(=O)c3c(C(F)F)nn(C)c3Br)c21 (centres unmarked) [Example 5]	2.64[a]	97	100	–	–	–	–	–	–	–
Cn1cc(C(=O)Nc2cccc3c2COC3(C)C)c(C(F)F)n1 [Example 7]	2.1[a]	98	100	–	–	–	–	–	–	–
CC1OC(C)(C)c2cccc(NC(=O)c3cn(C)nc3C(F)F)c21 (centres unmarked) [Example 10]	2.15[a]	94	95	–	–	–	–	–	–	–
CC(C)C1OC(C)(C)c2cccc(NC(=O)c3c(C(F)F)nn(C)c3Cl)c21 (centres unmarked) [Example 14]	3.33[a]	–	–	98	100	100	92	75	93	–
CCC1OC(C)(C)c2cccc(NC(=O)c3cn(C)nc3C(F)F)c21 (centres unmarked) [Example 16]	–	–	–	98	98	100	83	–	83	–
CC(C)C1OC(C)(C)c2cccc(NC(=O)c3c(C(F)F)nn(C)c3Br)c21 (centres unmarked) [Example 17]	3.33[a]	–	–	94	–	100	83	–	–	–
CCC1OCc2cccc(NC(=O)c3c(C(F)F)nn(C)c3Br)c21 (centres unmarked) [Example 20]	2.96[a]	–	–	98	–	100	–	–	–	–
CC(C)C1OC(C)(C)c2cccc(NC(=O)c3c(C(F)F)nn(C)c3F)c21 (centres unmarked) [Example 22, 3-(difluoromethyl)-5-fluoro-N-(3-isopropyl-1,1-dimethyl-1,3-dihydro-2-benzofuran-4-yl)-1-methyl-1H-pyrazole-4-carboxamide]	–	–	–	98	100	99	97	–	98	chromatographic logP [1]: 3.11
CC(C)C1OC(C)(C)c2cccc(NC(=O)c3cn(C)nc3C(F)F)c21 (centres unmarked) [Example 25]	2.76[a]	–	–	98	100	99	83	75	98	–
CCC1OC(CC)(CC)c2cccc(NC(=S)c3cn(C)nc3C(F)F)c21 (centres unmarked) [Example 26, 3-(difluoromethyl)-1-methyl-N-(1,1,3-triethyl-1,3-dihydro-2-benzofuran-4-yl)-1H-pyrazole-4-carbothioamide]	–	–	–	–	–	–	–	–	–	chromatographic logP [1]: 3.76

Further lines, with some results ahead:

logP [1]	SMILES	Eff. % (Puccinia recondita; 500 ppm) [%]	Eff. % (Uromyces appendiculatus; 500 ppm) [%]	Eff. % (Puccinia recondita; 100 ppm) [%]	Eff. % (Sphaerotheca fuliginea; 100 ppm) [%]	Eff. % (Uromyces appendiculatus; 100 ppm) [%]	Eff. % (Pyrenophora teres; 100 ppm) [%]	Eff. % (Alternaria brassicae; 100 ppm) [%]	Eff. % (Botrytis cinerea; 100 ppm) [%]	also measured
2.35[a]	Cn1nc(C(F)F)c(C(=O)Nc2cccc3c2COC3(C)C)c1F [Example 3]	100	100	–	–	–	–	–	–	–
2.9[a]	CCC1(CC)OC(C)c2c(NC(=O)c3cn(C)nc3C(F)F)cccc21 (centres unmarked) [Example 6]	–	100	–	–	–	–	–	–	Eff. % (Sphaerotheca fuliginea; 500 ppm): 100%; Eff. % (Pyrenophora teres; 500 ppm): 92%; Eff. % (Septoria tritici): 100%; Eff. % (Botrytis cinerea; 500 ppm): 100%
4.06[a]	CCC1(CC)OC(C(C)C)c2c(NC(=O)c3c(C(F)F)nn(C)c3F)cccc21 (centres unmarked) [Example 8]	98	100	–	–	–	–	–	–	Eff. % (Sphaerotheca fuliginea; 500 ppm): 100%; Eff. % (Alternaria brassicae; 500 ppm): 83%; Eff. % (Septoria tritici): 86%
3.48[a]	CCC1(CC)OC(C)c2c(NC(=O)c3c(C(F)F)nn(C)c3Cl)cccc21 (centres unmarked) [Example 9]	100	100	–	–	–	–	–	–	Eff. % (Sphaerotheca fuliginea; 500 ppm): 94%; Eff. % (Septoria tritici): 93%
3.63[a]	CCC1(CC)OC(C(C)C)c2c(NC(=O)c3cn(C)nc3C(F)F)cccc21 (centres unmarked) [Example 12]	94	100	–	–	–	–	–	–	Eff. % (Sphaerotheca fuliginea; 500 ppm): 100%; Eff. % (Alternaria brassicae; 500 ppm): 78%; Eff. % (Septoria tritici): 86%
2.94[a]	CCC1OC(C)(C)c2cccc(NC(=O)c3c(C(F)F)nn(C)c3Cl)c21 (centres unmarked) [Example 15]	–	–	100	98	100	92	75	–	–
3.87[a]	CCC1OC(CC)(CC)c2cccc(NC(=O)c3c(C(F)F)nn(C)c3Cl)c21 (centres unmarked) [Example 18]	–	–	98	100	100	83	75	–	–
3.87[a]	CCC1OC(CC)(CC)c2cccc(NC(=O)c3c(C(F)F)nn(C)c3Br)c21 (centres unmarked) [Example 19]	–	–	98	83	100	–	75	–	–
2.76[a]	CCC1OC(C)(C)c2cccc(NC(=O)c3c(C(F)F)nn(C)c3F)c21 (centres unmarked) [Example 21]	–	–	98	98	100	–	–	93	–
3.26[a]	CCC1OC(CC)(CC)c2cccc(NC(=O)c3cn(C)nc3C(F)F)c21 (centres unmarked) [Example 23]	–	–	98	100	100	92	88	97	–
3.65[a]	CCC1OC(CC)(CC)c2cccc(NC(=O)c3c(C(F)F)nn(C)c3F)c21 (centres unmarked) [Example 24]	–	–	98	100	100	83	75	87	–
